Results on nine compounds are retold here after patent US11427548B2 (Arvinas Operations, Inc., priority 2015, dated 2022).

The target in assay [1] is T1, Androgen Receptor (Homo sapiens, UniProt P10275+P40337, T878A).
T1 construct: Compounds have been evaluated in this assay in LNCaP and/or VCaP cells utilizing similar protocols; endogenous in cells; host or cells: LNCaP cells
In words: Androgen Receptor ELISA assay (PathScan AR ELISA) in LNCaP cells: AR degradation, Dmax and DC50. It counts as cell-based. The settings on record: for DC50: concentration that caused 50% Androgen Receptor degradation; for Dmax: highest percentage of Androgen Receptor degradation observed.

Assay [2] addresses T2, Androgen Receptor (Homo sapiens, UniProt P10275).
T2 construct: endogenous in cells; host or cells: VCaP cells
T2 sequence (P10275 1-920): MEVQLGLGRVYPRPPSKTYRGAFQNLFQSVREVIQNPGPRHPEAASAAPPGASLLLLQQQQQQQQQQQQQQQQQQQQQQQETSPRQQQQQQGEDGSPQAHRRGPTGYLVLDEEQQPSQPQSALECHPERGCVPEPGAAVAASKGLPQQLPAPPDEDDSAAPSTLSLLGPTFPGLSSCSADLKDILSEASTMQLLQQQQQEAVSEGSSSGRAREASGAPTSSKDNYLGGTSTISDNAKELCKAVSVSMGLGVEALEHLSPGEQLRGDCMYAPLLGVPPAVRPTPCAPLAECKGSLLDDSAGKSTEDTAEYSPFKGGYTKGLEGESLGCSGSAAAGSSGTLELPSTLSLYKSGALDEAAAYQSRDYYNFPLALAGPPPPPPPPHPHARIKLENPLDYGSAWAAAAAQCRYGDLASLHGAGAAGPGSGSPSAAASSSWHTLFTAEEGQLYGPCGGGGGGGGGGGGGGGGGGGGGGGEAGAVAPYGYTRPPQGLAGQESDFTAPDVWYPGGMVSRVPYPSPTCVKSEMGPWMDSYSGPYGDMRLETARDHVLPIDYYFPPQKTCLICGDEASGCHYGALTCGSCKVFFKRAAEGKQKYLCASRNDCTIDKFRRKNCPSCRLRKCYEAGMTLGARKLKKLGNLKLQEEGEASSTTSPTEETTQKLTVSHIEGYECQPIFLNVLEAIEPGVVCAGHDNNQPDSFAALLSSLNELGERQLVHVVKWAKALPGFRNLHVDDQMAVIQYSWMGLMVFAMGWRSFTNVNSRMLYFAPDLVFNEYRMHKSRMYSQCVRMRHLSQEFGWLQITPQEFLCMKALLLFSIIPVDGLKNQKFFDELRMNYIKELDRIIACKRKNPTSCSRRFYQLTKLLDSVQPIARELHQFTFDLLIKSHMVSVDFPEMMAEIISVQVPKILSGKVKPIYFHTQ
In words: Androgen Receptor ELISA assay (PathScan AR ELISA) in VCaP cells: AR degradation, Dmax and DC50. It counts as cell-based. The gist of the method: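 VCaP cells, 30,000/well, grown ≥3 days in phenol red-free RPMI with 5% charcoal-stripped FBS; compound added in 0.1% DMSO with 0.1 nM R1881, 7 half-log doses, 24 h. Lysate AR quantified by PathScan sandwich ELISA, HRP/TMB read at 450 nm, giving DC50 and Dmax.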

Setting [3] is: read-out: VCaP DC50; concentration that caused 50% Androgen Receptor degradation, VCaP cells.

Like-named read-outs stand apart in the source and are kept apart here.

T1 sequence (P10275 whole entry T878A): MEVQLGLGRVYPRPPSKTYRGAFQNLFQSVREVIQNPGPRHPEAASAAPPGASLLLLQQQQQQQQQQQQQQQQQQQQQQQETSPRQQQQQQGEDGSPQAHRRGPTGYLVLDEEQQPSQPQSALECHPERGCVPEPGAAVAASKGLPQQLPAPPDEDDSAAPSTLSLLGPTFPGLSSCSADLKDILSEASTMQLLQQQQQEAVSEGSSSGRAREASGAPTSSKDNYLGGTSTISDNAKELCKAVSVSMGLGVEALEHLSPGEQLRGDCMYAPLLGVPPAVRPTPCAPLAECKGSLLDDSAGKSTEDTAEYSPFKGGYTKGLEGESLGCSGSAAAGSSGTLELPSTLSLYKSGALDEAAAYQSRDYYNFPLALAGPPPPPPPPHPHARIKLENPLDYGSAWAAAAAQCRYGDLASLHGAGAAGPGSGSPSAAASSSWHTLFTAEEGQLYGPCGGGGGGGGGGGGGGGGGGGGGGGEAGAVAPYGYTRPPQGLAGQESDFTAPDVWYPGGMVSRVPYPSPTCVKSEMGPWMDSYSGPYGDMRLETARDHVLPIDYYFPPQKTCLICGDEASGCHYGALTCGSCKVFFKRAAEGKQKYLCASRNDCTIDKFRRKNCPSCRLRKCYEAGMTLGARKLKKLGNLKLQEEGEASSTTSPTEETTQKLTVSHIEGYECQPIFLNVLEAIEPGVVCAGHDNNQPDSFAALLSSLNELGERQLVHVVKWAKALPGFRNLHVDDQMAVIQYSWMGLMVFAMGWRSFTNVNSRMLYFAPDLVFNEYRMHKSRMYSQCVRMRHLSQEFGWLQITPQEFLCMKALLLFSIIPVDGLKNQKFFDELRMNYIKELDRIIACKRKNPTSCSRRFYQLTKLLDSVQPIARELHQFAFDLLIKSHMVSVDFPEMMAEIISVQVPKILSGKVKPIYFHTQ
T1 sequence (P40337 whole entry): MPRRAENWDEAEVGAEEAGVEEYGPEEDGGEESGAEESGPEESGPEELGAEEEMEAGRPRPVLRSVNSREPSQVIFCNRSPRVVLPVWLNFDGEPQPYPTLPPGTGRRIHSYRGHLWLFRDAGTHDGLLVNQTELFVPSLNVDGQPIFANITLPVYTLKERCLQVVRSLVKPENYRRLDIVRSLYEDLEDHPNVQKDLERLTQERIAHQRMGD
T1 sequence (Q15369 whole entry partner): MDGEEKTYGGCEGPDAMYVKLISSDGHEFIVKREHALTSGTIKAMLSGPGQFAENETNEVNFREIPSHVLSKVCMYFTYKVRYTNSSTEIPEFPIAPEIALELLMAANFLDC
T1 sequence (Q15370 whole entry partner): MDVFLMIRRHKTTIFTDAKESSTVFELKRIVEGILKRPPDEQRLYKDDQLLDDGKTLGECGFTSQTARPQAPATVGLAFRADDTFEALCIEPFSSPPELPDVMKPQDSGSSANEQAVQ

On to `Cc1ncsc1-c1ccc([C@H](C)NC(=O)[C@@H]2C[C@@H](O)CN2C(=O)[C@@H](NC(=O)COCCCOCCCCCOc2ccc(N3C(=S)N(c4ccc(C#N)c(C(F)(F)F)c4)C(=O)C3(C)C)cc2F)C(C)(C)C)cc1` [Example 10, (2S,4R)-1-[(2S)-2-[2-(3-{[5-(4-{3-[4-cyano-3-(trifluoromethyl)phenyl]-5,5-dimethyl-4-oxo-2-sulfanylideneimidazolidin-1-yl}-2-fluorophenoxy)pentyl]oxy}propoxy)acetamido]-3,3-dimethylbutanoyl]-4-hydroxy-N-[(1S)-1-[4-(4-methyl-1,3-thiazol-5-yl)phenyl]ethyl]pyrrolidine-2-carboxamide], for which the DC50 in assay [1] and in assay [2] (setting [3]) was less than 50 nM throughout. For the same compound, the Dmax in assay [1] was greater than 71%; in assay [2] (VCaP, read-out: VCaP Dmax (%)), 51 to 70%.
On to `Cc1ncsc1-c1ccc([C@H](C)NC(=O)[C@@H]2C[C@@H](O)CN2C(=O)[C@@H](NC(=O)COCCCOCCCCCOc2c(F)cc(N3C(=S)N(c4ccc(C#N)c(C(F)(F)F)c4)C(=O)C3(C)C)cc2F)C(C)(C)C)cc1` [Example 11, (2S,4R)-1-[(2S)-2-[2-(3-{[5-(4-{3-[4-cyano-3-(trifluoromethyl)phenyl]-5,5-dimethyl-4-oxo-2-sulfanylideneimidazolidin-1-yl}-2,6-difluorophenoxy)pentyl]oxy}propoxy)acetamido]-3,3-dimethylbutanoyl]-4-hydroxy-N-[(1S)-1-[4-(4-methyl-1,3-thiazol-5-yl)phenyl]ethyl]pyrrolidine-2-carboxamide], for which the half-maximal degradation concentration (DC50) in assay [1] and in assay [2] (setting [3]) was less than 50 nM each time. Besides, the Dmax in assay [1] is greater than 71%; in assay [2] (VCaP, read-out: VCaP Dmax (%)) it was 51 to 70%.
With `Cc1ncsc1-c1ccc(CNC(=O)[C@@H]2C[C@@H](O)CN2C(=O)[C@@H](NC(=O)COCCCOCCC(C)(C)CCOc2ccc(N3C(=S)N(c4ccc(C#N)c(C(F)(F)F)c4)C(=O)C3(C)C)cc2)C(C)(C)C)cc1` [Example 12, (2S,4R)-1-[(2S)-2-[2-(3-{[5-(4-{3-[4-cyano-3-(trifluoromethyl)phenyl]-5,5-dimethyl-4-oxo-2-sulfanylideneimidazolidin-1-yl}phenoxy)-3,3-dimethylpentyl]oxy}propoxy)acetamido]-3,3-dimethylbutanoyl]-4-hydroxy-N-{[4-(4-methyl-1,3-thiazol-5-yl)phenyl]methyl}pyrrolidine-2-carboxamide], the DC50 in assay [1] was 51 to 500 nM; in assay [2] (setting [3]), less than 50 nM. Also, the Dmax in assay [1] is greater than 71%; in assay [2] (VCaP, read-out: VCaP Dmax (%)), 26 to 50%.
The corresponding values for `Cc1ncsc1-c1ccc(CNC(=O)[C@@H]2C[C@@H](O)CN2C(=O)[C@@H](NC(=O)CO[C@H](C)[C@@H](C)OCCOCCOc2ccc(N3C(=S)N(c4ccc(C#N)c(C(F)(F)F)c4)C(=O)C3(C)C)cc2)C(C)(C)C)cc1` [Example 22, (2S,4R)-1-[(2S)-2-(2-{[(2R,3R)-3-{2-[2-(4-{3-[4-cyano-3-(trifluoromethyl)phenyl]-5,5-dimethyl-4-oxo-2-sulfanylideneimidazolidin-1-yl}phenoxy)ethoxy]ethoxy}butan-2-yl]oxy}acetamido)-3,3-dimethylbutanoyl]-4-hydroxy-N-{[4-(4-methyl-1,3-thiazol-5-yl)phenyl]methyl}pyrrolidine-2-carboxamide] are less than 50 nM, 51 to 500 nM, 51 to 70% and 26 to 50%.
`Cc1ncsc1-c1ccc([C@H](C)NC(=O)[C@@H]2C[C@@H](O)CN2C(=O)[C@@H](NC(=O)COCCCCOCCCCOc2ccc(N3C(=S)N(c4ccc(C#N)c(C(F)(F)F)c4)C(=O)C3(C)C)cc2F)C(C)(C)C)cc1` [Example 25, (2S,4R)-1-[(2S)-2-(2-{4-[4-(4-{3-[4-cyano-3-(trifluoromethyl)phenyl]-5,5-dimethyl-4-oxo-2-sulfanylideneimidazolidin-1-yl}-2-fluorophenoxy)butoxy]butoxy}acetamido)-3,3-dimethylbutanoyl]-4-hydroxy-N-[(lS)-1-[4-(4-methyl-1,3-thiazol-5-yl)phenyl]ethyl]pyrrolidine-2-carboxamide]: the DC50 in assay [1] and in assay [2] (setting [3]) was less than 50 nM in each case. Moreover, the Dmax in assay [1] was greater than 71%; in assay [2] (VCaP, read-out: VCaP Dmax (%)) it was 51 to 70%.
In the case of `Cc1ncsc1-c1ccc(CNC(=O)[C@@H]2C[C@@H](O)CN2C(=O)[C@@H](NC(=O)COCCCOCCCCOc2ccc(N3C(=S)N(c4ccc(C#N)c(C(F)(F)F)c4)C(=O)C3(C)C)cc2F)C(C)(C)C)cc1` [Example 27, (2S,4R)-1-[(2S)-2-(2-{3-[4-(4-{3-[4-cyano-3-(trifluoromethyl)phenyl]-5,5-dimethyl-4-oxo-2-sulfanylideneimidazolidin-1-yl}-2-fluorophenoxy)butoxy]propoxy}acetamido)-3,3-dimethylbutanoyl]-4-hydroxy-N-{[4-(4-methyl-1,3-thiazol-5-yl)phenyl]methyl}pyrrolidine-2-carboxamide], the DC50 in assay [1] and in assay [2] (setting [3]) was less than 50 nM in each case. Further, the Dmax is greater than 71% in assay [1] and greater than 71% in assay [2] (VCaP, read-out: VCaP Dmax (%)).
`Cc1ncsc1-c1ccc(CNC(=O)[C@@H]2C[C@@H](O)CN2C(=O)[C@@H](NC(=O)COCCCOCCCCOc2ccc(N3C(=S)N(c4ccc(C#N)c(C(F)(F)F)c4)C(=O)C3(C)C)cc2)C(C)(C)C)cc1` [Example 28, (2S,4R)-1-[(2S)-2-(2-{3-[4-(4-{3-[4-cyano-3-(trifluoromethyl)phenyl]-5,5-dimethyl-4-oxo-2-sulfanylideneimidazolidin-1-yl}phenoxy)butoxy]propoxy}acetamido)-3,3-dimethylbutanoyl]-4-hydroxy-N-{[4-(4-methyl-1,3-thiazol-5-yl)phenyl]methyl}pyrrolidine-2-carboxamide]: the DC50 in assay [1] and in assay [2] (setting [3]) was less than 50 nM throughout. The Dmax in assay [1] was greater than 71%; in assay [2] (VCaP, read-out: VCaP Dmax (%)), 51 to 70%.
In assay [1], `Cc1ncsc1-c1ccc(CNC(=O)[C@@H]2C[C@@H](O)CN2C(=O)[C@@H](NC(=O)COCCCOCCCCOc2ccc(N3C(=S)N(c4ccc(C#N)c(C(F)(F)F)c4)C(=O)C3(C)C)cc2)C(C)C)cc1` [Example 29, (2S,4R)-1-[(2S)-2-(2-{3-[4-(4-{3-[4-cyano-3-(trifluoromethyl)phenyl]-5,5-dimethyl-4-oxo-2-sulfanylideneimidazolidin-1-yl}phenoxy)butoxy]propoxy}acetamido)-3-methylbutanoyl]-4-hydroxy-N-{[4-(4-methyl-1,3-thiazol-5-yl)phenyl]methyl}pyrrolidine-2-carboxamide] displayed a DC50 of 51 to 500 nM and a Dmax of 51 to 70%. The Dmax in assay [2] (VCaP, read-out: VCaP Dmax (%)) lay within 51 to 70%.
As for `Cc1ncsc1-c1ccc(CNC(=O)[C@@H]2C[C@@H](O)CN2C(=O)[C@@H](NC(=O)COCCCOCCCCOc2ccc(N3C(=S)N(c4cnc(C#N)c(C(F)(F)F)c4)C(=O)C3(C)C)cc2)C(C)(C)C)cc1` [Example 30, (2S,4R)-1-[(2S)-2-(2-{3-[4-(4-{3-[6-cyano-5-(trifluoromethyl)pyridin-3-yl]-5,5-dimethyl-4-oxo-2-sulfanylideneimidazolidin-1-yl}phenoxy)butoxy]propoxy}acetamido)-3,3-dimethylbutanoyl]-4-hydroxy-N-{[4-(4-methyl-1,3-thiazol-5-yl)phenyl]methyl}pyrrolidine-2-carboxamide], the 50% degradation concentration (DC50) in assay [1] is less than 50 nM; in assay [2] (concentration that caused 50% Androgen Receptor degradation, VCaP cells; read-out: VCaP DC50), less than 50 nM. Besides, the Dmax in assay [1] was greater than 71%; in assay [2] (VCaP, highest percentage of Androgen Receptor degradation observed, VCaP cells; read-out: VCaP Dmax (%)), greater than 71%.
